From US12042655B2, “Systems for detecting catheter movement” (Cardionomic, Inc., priority 2017, dated 2024) come the findings set out here.

For this assay, the system named is normal, non-HF ovine model. Put plainly: Change in right and left ventricle contractility after injection, with max(dP/dt) pressure as surrogate and heartbeat-by-heartbeat RV/LV correlation. In kind it is in vivo. The conditions noted are these: max(dP/dt) used as surrogate for contractility. An excerpt: The correlation was a heartbeat-by-heartbeat analysis. Pressure measurements, taken by a Millar catheter comprising a MEMS pressure sensor, in units of max(dP/dt) was used as a surrogate for contractility. The first change, a dobutamine injection, provided a very high contractility increase greater than 500%. The average correlation between right ventricle contractility and left ventricle contractility was very good at 0.91, where 1.00 is a perfect correlation. Accordingly, if a subject is given a dobutamine injection, measuring changes to right ventricle contractility can provide accurate information about changes to left ventricle contractility. The first change was repeated three times. The second change, calcium injection at 5 mL, provided a contractility increase of about 20%. […] The average correlation between right ventricle contractility and left ventricle contractility using a Millar (MEMS) sensor on a catheter was very good at 0.91. The average correlation between right ventricle contractility and left ventricle contractility using a fluid-filled lumen of a Swan-Ganz catheter in communication with an external pressure sensor was also very good at 0.87. Accordingly, under certain circumstances such as measurement of an animal (normal, non-HF ovine model) model, if a subject is given a calcium injection, measuring changes to right ventricle contractility with a MEMS sensor or a fluid filled lumen can provide accurate information about changes to left ventricle contractility.

For `CC(CCc1ccc(O)cc1)NCCc1ccc(O)c(O)c1` (stereo not shown) [Dobutamine Injection, dobutamine], the “Contractility % Increase” value is listed as more than 500%. The “Contractility % Increase” value (listed as dobutamine injection) is “greater than 500%”.
calcium [Calcium Injection]: the “Contractility % Increase” value is listed as approximately 20%. Further, the “Contractility % Increase” value (listed as calcium injection) is reported as “about 20%”.
